Where a SMILES comes first, the peptide text is derived from it. Bridges are numbered along the chain shown (N, C = ends). [ ]: non-standard residue; d: D form. The star is where a group is joined. ξ: configuration not given here. Phe(4-COOH) = N[C@@H](Cc1ccc(C(=O)O)cc1)C(=O)O; Bip = N[C@@H](Cc1ccc(-c2ccccc2)cc1)C(=O)O; Phe(3-Me) = Cc1cccc(C[C@H](N)C(=O)O)c1; Val(3-OH) = CC(C)(O)[C@H](N)C(=O)O; 4Pal = N[C@@H](Cc1ccncc1)C(=O)O; Cha = N[C@@H](CC1CCCCC1)C(=O)O; Ile(3ξ) = CCC(C)[C@H](N)C(=O)O; Thr(3ξ) = CC(O)[C@H](N)C(=O)O; Carboxymethyl = O=C(O)C*; Orn = NCCC[C@H](N)C(=O)O; Dab = NCC[C@H](N)C(=O)O

One may read the IC50 as the concentration that gives 50% inhibition.

T1 sequence (Q15116 25-288): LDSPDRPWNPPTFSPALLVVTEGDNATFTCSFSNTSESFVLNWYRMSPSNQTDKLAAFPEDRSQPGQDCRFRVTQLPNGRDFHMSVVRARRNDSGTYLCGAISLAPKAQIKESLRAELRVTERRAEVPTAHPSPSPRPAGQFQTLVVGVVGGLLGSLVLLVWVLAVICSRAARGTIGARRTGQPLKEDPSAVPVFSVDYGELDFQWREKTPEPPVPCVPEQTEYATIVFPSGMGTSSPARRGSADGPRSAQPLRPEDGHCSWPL

The assay has as its target T1, human PD-1 / PD-L1-Ig binding on Jurkat cell line over-expressing human PD-1 (Jurkat-PD-1) (Homo sapiens, UniProt Q15116).
T1 construct: expressed in transfected cells; host or cells: Jurkat
Description: Jurkat-PD-1 Cell Binding High-Content Screening Assay (CBA). It counts as cell-based. The conditions noted are these: Jurkat-PD-1 cells, PE-labeled PD-L1-Ig 20 nM final; read-out: Jurkat HPD1_PDL1 IC50. The gist of the method:
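Read-out: high-content imaging of PE-tagged PD-L1-Ig bound to Jurkat cells overexpressing human PD-1, after fixation with 4% paraformaldehyde and Hoechst 33342 nuclear staining. Ligand was used at 20 nM final for 1 hour, after a 2 h compound exposure at 37° C in serum-containing DMEM.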
On to `CCC(C)[C@@H]1NC(=O)[C@H](Cc2ccc(-c3ccccc3)cc2)NC(=O)[C@H](C(C)C)NC(=O)[C@H](Cc2cccc(C)c2)NC(=O)[C@H](CC(=O)O)NC(=O)[C@H](Cc2ccc(C(=O)O)cc2)NC(=O)[C@H](Cc2ccncc2)NC(=O)CSC[C@@H](C(N)=O)NC(=O)[C@H]([C@@H](C)O)NC(=O)[C@H](C(C)C)NC(=O)[C@H](CC2CCCCC2)NC(=O)[C@H](CCN)NC(=O)[C@@H](CC(C)C)NC(=O)[C@H](CCCN)NC1=O` (stereo partly drawn) [Compound 2275] ({CH2CO}-[4Pal][Phe(4-COOH)]D[Phe(3-Me)]V[Bip][Ile(3ξ)][Orn][dL][Dab][Cha]VTC-NH2; thioether N-14), for which the half-inhibitory concentration (IC50) worked out at 33.5 nM. To `CCC(C)[C@@H]1NC(=O)[C@H](Cc2ccc(-c3ccccc3)cc2)NC(=O)[C@H](C(C)C)NC(=O)[C@H](Cc2cccc(C)c2)NC(=O)[C@H](CC(=O)O)NC(=O)[C@H](Cc2ccc(C(=O)O)cc2)NC(=O)[C@H](Cc2ccncc2)NC(=O)CSC[C@@H](C(N)=O)NC(=O)[C@H](CO)NC(=O)[C@H](C(C)C)NC(=O)[C@H](CC2CCCCC2)NC(=O)[C@H](CCN)NC(=O)[C@@H](CC(C)C)NC(=O)[C@H](CCCN)NC1=O` (stereo partly drawn) [Compound 2276] ({CH2CO}-[4Pal][Phe(4-COOH)]D[Phe(3-Me)]V[Bip][Ile(3ξ)][Orn][dL][Dab][Cha]VSC-NH2; thioether N-14) belongs 26.6 nM; to `CCC(C)[C@@H]1NC(=O)[C@H](Cc2ccc(-c3ccccc3)cc2)NC(=O)[C@H](C(C)C)NC(=O)[C@H](Cc2cccc(C)c2)NC(=O)[C@H](CC(=O)O)NC(=O)[C@H](Cc2ccc(C(=O)O)cc2)NC(=O)[C@H](Cc2ccncc2)NC(=O)CSC[C@@H](C(N)=O)NC(=O)[C@H](CCC(=O)O)NC(=O)[C@H](C(C)C)NC(=O)[C@H](CC2CCCCC2)NC(=O)[C@H](CCN)NC(=O)[C@@H](CC(C)C)NC(=O)[C@H](CCCN)NC1=O` (stereo partly drawn) [Compound 2277] ({CH2CO}-[4Pal][Phe(4-COOH)]D[Phe(3-Me)]V[Bip][Ile(3ξ)][Orn][dL][Dab][Cha]VEC-NH2; thioether N-14), 32.6 nM.

`CCC(C)[C@@H]1NC(=O)[C@H](Cc2ccc(-c3ccccc3)cc2)NC(=O)[C@H](C(C)C)NC(=O)[C@H](Cc2cccc(C)c2)NC(=O)[C@H](CC(=O)O)NC(=O)[C@H](Cc2ccc(C(=O)O)cc2)NC(=O)[C@H](Cc2ccncc2)NC(=O)CSC[C@@H](C(N)=O)NC(=O)[C@H](CC(=O)O)NC(=O)[C@H](C(C)C)NC(=O)[C@H](CC2CCCCC2)NC(=O)[C@H](CCN)NC(=O)[C@@H](CC(C)C)NC(=O)[C@H](CCCN)NC1=O` (stereo partly drawn) [Compound 2278] ({CH2CO}-[4Pal][Phe(4-COOH)]D[Phe(3-Me)]V[Bip][Ile(3ξ)][Orn][dL][Dab][Cha]VDC-NH2; thioether N-14): the IC50 was 37.6 nM.

For `CCC(C)[C@@H]1NC(=O)[C@H](Cc2ccc(-c3ccccc3)cc2)NC(=O)[C@H](C(C)C)NC(=O)[C@H](Cc2cccc(C)c2)NC(=O)[C@H](CC(=O)O)NC(=O)[C@H](Cc2ccc(C(=O)O)cc2)NC(=O)[C@H](Cc2ccncc2)NC(=O)CSC[C@@H](C(N)=O)NC(=O)[C@H](CC(N)=O)NC(=O)[C@H](C(C)C)NC(=O)[C@H](CC2CCCCC2)NC(=O)[C@H](CCN)NC(=O)[C@@H](CC(C)C)NC(=O)[C@H](CCCN)NC1=O` (stereo partly drawn) [Compound 2279] ({CH2CO}-[4Pal][Phe(4-COOH)]D[Phe(3-Me)]V[Bip][Ile(3ξ)][Orn][dL][Dab][Cha]VNC-NH2; thioether N-14), the concentration for half-maximal inhibition (IC50) was determined as 15.6 nM. To `CCC(C)[C@@H]1NC(=O)[C@H](Cc2ccc(-c3ccccc3)cc2)NC(=O)[C@H](C(C)C)NC(=O)[C@H](Cc2cccc(C)c2)NC(=O)[C@H](CC(=O)O)NC(=O)[C@H](Cc2ccc(C(=O)O)cc2)NC(=O)[C@H](Cc2ccncc2)NC(=O)CSC[C@@H](C(N)=O)NC(=O)[C@H](CCC(N)=O)NC(=O)[C@H](C(C)C)NC(=O)[C@H](CC2CCCCC2)NC(=O)[C@H](CCN)NC(=O)[C@@H](CC(C)C)NC(=O)[C@H](CCCN)NC1=O` (stereo partly drawn) [Compound 2280] ({CH2CO}-[4Pal][Phe(4-COOH)]D[Phe(3-Me)]V[Bip][Ile(3ξ)][Orn][dL][Dab][Cha]VQC-NH2; thioether N-14) belongs 40.9 nM; to `Cc1cccc(C[C@@H]2NC(=O)[C@H](CC(=O)O)NC(=O)[C@H](Cc3ccc(C(=O)O)cc3)NC(=O)[C@H](Cc3ccncc3)NC(=O)CSC[C@@H](C(=O)N[C@@H](CC(N)=O)C(N)=O)NC(=O)[C@H](CO)NC(=O)[C@H](C(C)C)NC(=O)[C@H](CC3CCCCC3)NC(=O)[C@H](CCN)NC(=O)[C@@H](CC(C)C)NC(=O)[C@H](CCCN)NC(=O)[C@H](Cc3ccc(O)cc3)NC(=O)[C@H](Cc3ccc(-c4ccccc4)cc3)NC(=O)[C@H](Cc3ccc(O)cc3)NC2=O)c1` [Compound 2284] ({CH2CO}-[4Pal][Phe(4-COOH)]D[Phe(3-Me)]Y[Bip]Y[Orn][dL][Dab][Cha]VSCN-NH2; thioether N-14), 4.1 nM. To `Cc1cccc(C[C@@H]2NC(=O)[C@H](CC(=O)O)NC(=O)[C@H](Cc3ccc(C(=O)O)cc3)NC(=O)[C@H](Cc3ccncc3)NC(=O)CSC[C@@H](C(=O)N[C@H](CC(N)=O)C(N)=O)NC(=O)[C@H](CO)NC(=O)[C@H](C(C)C)NC(=O)[C@H](CC3CCCCC3)NC(=O)[C@H](CCN)NC(=O)[C@@H](CC(C)C)NC(=O)[C@H](CCCN)NC(=O)[C@H](Cc3ccc(O)cc3)NC(=O)[C@H](Cc3ccc(-c4ccccc4)cc3)NC(=O)[C@H](Cc3ccc(O)cc3)NC2=O)c1` [Compound 2286] ({CH2CO}-[4Pal][Phe(4-COOH)]D[Phe(3-Me)]Y[Bip]Y[Orn][dL][Dab][Cha]VSC[dN]-NH2; thioether N-14) belongs 8.9 nM; to `Cc1cccc(C[C@@H]2NC(=O)[C@H](CC(=O)O)NC(=O)[C@H](Cc3ccc(C(=O)O)cc3)NC(=O)[C@H](Cc3ccncc3)NC(=O)CSC[C@@H](C(=O)N[C@@H](CC(N)=O)C(N)=O)NC(=O)[C@H](C(C)O)NC(=O)[C@H](C(C)C)NC(=O)[C@H](CC3CCCCC3)NC(=O)[C@H](CCN)NC(=O)[C@@H](CC(C)C)NC(=O)[C@H](CCCN)NC(=O)[C@H](Cc3ccc(O)cc3)NC(=O)[C@H](Cc3ccc(-c4ccccc4)cc3)NC(=O)[C@H](C(C)C)NC2=O)c1` (stereo partly drawn) [Compound 2288] ({CH2CO}-[4Pal][Phe(4-COOH)]D[Phe(3-Me)]V[Bip]Y[Orn][dL][Dab][Cha]V[Thr(3ξ)]CN-NH2; thioether N-14), 14.6 nM.

Turning to `Cc1cccc(C[C@@H]2NC(=O)[C@H](CC(=O)O)NC(=O)[C@H](Cc3ccc(C(=O)O)cc3)NC(=O)[C@H](Cc3ccncc3)NC(=O)CSC[C@@H](C(=O)N[C@@H](CC(N)=O)C(N)=O)NC(=O)[C@H](CO)NC(=O)[C@H](C(C)C)NC(=O)[C@H](CC3CCCCC3)NC(=O)[C@H](CCN)NC(=O)[C@@H](CC(C)C)NC(=O)[C@H](CCCN)NC(=O)[C@H](Cc3ccc(O)cc3)NC(=O)[C@H](Cc3ccc(-c4ccccc4)cc3)NC(=O)[C@H](C(C)C)NC2=O)c1` [Compound 2289] ({CH2CO}-[4Pal][Phe(4-COOH)]D[Phe(3-Me)]V[Bip]Y[Orn][dL][Dab][Cha]VSCN-NH2; thioether N-14), the IC50 is 16.4 nM.

For the compound `Cc1cccc(C[C@@H]2NC(=O)[C@H](CC(=O)O)NC(=O)[C@H](Cc3ccc(C(=O)O)cc3)NC(=O)[C@H](Cc3ccncc3)NC(=O)CSC[C@@H](C(=O)N[C@H](CC(N)=O)C(N)=O)NC(=O)[C@H]([C@@H](C)O)NC(=O)[C@H](C(C)C)NC(=O)[C@H](CC3CCCCC3)NC(=O)[C@H](CCN)NC(=O)[C@@H](CC(C)C)NC(=O)[C@H](CCCN)NC(=O)[C@H](Cc3ccc(O)cc3)NC(=O)[C@H](Cc3ccc(-c4ccccc4)cc3)NC(=O)[C@H](C(C)C)NC2=O)c1` [Compound 2290] ({CH2CO}-[4Pal][Phe(4-COOH)]D[Phe(3-Me)]V[Bip]Y[Orn][dL][Dab][Cha]VTC[dN]-NH2; thioether N-14), the IC50 stood at 13.5 nM. To `Cc1cccc(C[C@@H]2NC(=O)[C@H](CC(=O)O)NC(=O)[C@H](Cc3ccc(C(=O)O)cc3)NC(=O)[C@H](Cc3ccncc3)NC(=O)CSC[C@@H](C(=O)N[C@H](CC(N)=O)C(N)=O)NC(=O)[C@H](CO)NC(=O)[C@H](C(C)C)NC(=O)[C@H](CC3CCCCC3)NC(=O)[C@H](CCN)NC(=O)[C@@H](CC(C)C)NC(=O)[C@H](CCCN)NC(=O)[C@H](Cc3ccc(O)cc3)NC(=O)[C@H](Cc3ccc(-c4ccccc4)cc3)NC(=O)[C@H](C(C)C)NC2=O)c1` [Compound 2291] ({CH2CO}-[4Pal][Phe(4-COOH)]D[Phe(3-Me)]V[Bip]Y[Orn][dL][Dab][Cha]VSC[dN]-NH2; thioether N-14) belongs 10.6 nM.

Turning to `Cc1cccc(C[C@@H]2NC(=O)[C@H](CC(=O)O)NC(=O)[C@H](Cc3ccc(C(=O)O)cc3)NC(=O)[C@H](Cc3ccncc3)NC(=O)CSC[C@@H](C(=O)N[C@@H](CCN)C(N)=O)NC(=O)[C@H]([C@@H](C)O)NC(=O)[C@H](C(C)C)NC(=O)[C@H](CC3CCCCC3)NC(=O)[C@H](CCN)NC(=O)[C@@H](CC(C)C)NC(=O)[C@H](CCCN)NC(=O)[C@H](Cc3ccc(O)cc3)NC(=O)[C@H](Cc3ccc(-c4ccccc4)cc3)NC(=O)[C@H](C(C)C)NC2=O)c1` [Compound 2292] ({CH2CO}-[4Pal][Phe(4-COOH)]D[Phe(3-Me)]V[Bip]Y[Orn][dL][Dab][Cha]VTC[Dab]-NH2; thioether N-14), the IC50 came to 18.4 nM.

In the case of `Cc1cccc(C[C@@H]2NC(=O)[C@H](CC(=O)O)NC(=O)[C@H](Cc3ccc(C(=O)O)cc3)NC(=O)[C@H](Cc3ccncc3)NC(=O)CSC[C@@H](C(=O)N[C@@H](CCN)C(N)=O)NC(=O)[C@H](CO)NC(=O)[C@H](C(C)(C)O)NC(=O)[C@H](CC3CCCCC3)NC(=O)[C@H](CCN)NC(=O)[C@@H](CC(C)C)NC(=O)[C@H](CCCN)NC(=O)[C@H](Cc3ccc(OCC(=O)O)cc3)NC(=O)[C@H](Cc3ccc(-c4ccccc4)cc3)NC(=O)[C@H](Cc3ccc(OCC(=O)O)cc3)NC2=O)c1` [Compound 2293] ({CH2CO}-[4Pal][Phe(4-COOH)]D[Phe(3-Me)]Y(Carboxymethyl)[Bip]Y(Carboxymethyl)[Orn][dL][Dab][Cha][Val(3-OH)]SC[Dab]-NH2; thioether N-14), the IC50 amounted to 5.2 nM.
